# From patent publication US6878713B2, “Generation triple-targeting, chiral, broad-spectrum antimicrobial 7-substituted piperidino-quinolone carboxylic acid derivatives, their preparation, compositions and use as medicaments” (Wockhardt Limited, priority 2001, dated 2005)
row,melting point,SMILES
1,210 to 212 °C,"CCC1(C)CN(c2c(F)cc3c(=O)c(C(=O)O)cn(C4CC4)c3c2OC)CCC1NC1CC1 (stereo not drawn) [Compound 41, 1-Cyclopropyl-6-fluoro-1,4-dihydro-8-methoxy-7-(4-cyclopropylamino-3-ethyl-3-methyl-1-piperidinyl)-4-oxo-quinoline-3-carboxylic acid]"
2,194 to 196 °C,"COc1c(N2CCC(NC(C)=O)C(C)(C)C2)c(F)cc2c(=O)c(C(=O)O)cn(C3CC3)c12 (stereo not drawn) [Compound 29, 1-Cyclopropyl-6-fluoro-1,4-dihydro-8-methoxy-7-(4-acetylamino-3,3-dimethyl-1-piperidinyl)-4-oxo-quinoline-3-carboxylic acid]"
3,240 °C (dec.),"CNC1CCN(c2c(F)cc3c(=O)c(C(=O)O)cn(C4CC4)c3c2OC)CC1C (stereo not drawn) [Compound 8, 1-Cyclopropyl-6-fluoro-1,4-dihydro-8-methoxy-7-(4-methylamino-3-methyl-1-piperidinyl)-4-oxo-quinoline-3-carboxylic acid]"
4,182 to 184 °C,"COc1c(N2CCC(NC3CC3)C(C)C2)c(F)cc2c(=O)c(C(=O)O)cn(C3CC3)c12 (stereo not drawn) [Compound 11, 1-Cyclopropyl-6-fluoro-1,4-dihydro-8-methoxy-7-(4-cyclopropylamino-3-methyl-1-piperidinyl)-4-oxo-quinoline-3-carboxylic acid]"
5,210 °C (dec.),"CCC1(C)CN(c2c(F)c(N)c3c(=O)c(C(=O)O)cn(C4CC4)c3c2OC)CCC1N (stereo not drawn) [Compound 77, 5-Amino-1-cyclopropyl-6-fluoro-1,4-dihydro-8-methoxy-7-(4-amino-3-ethyl-3-methyl-1-piperidinyl)-4-oxo-quinoline-3-carboxylic acid]"
6,246 to 250 °C,"COc1c(N2CC[C@H](N)[C@H](C)C2)c(F)cc2c(=O)c(C(=O)O)cn(C3CC3)c12 (relative stereo) [Compound 5, cis-1-Cyclopropyl-6-fluoro-1,4-dihydro-8-methoxy-7-(4-amino-3-methyl-1-piperidinyl)-4-oxo-quinoline-3-carboxylic acid]"
7,186 to 188 °C,"CCC1(C)CN(c2c(F)c(N)c3c(=O)c(C(=O)O)cn(C4CC4)c3c2OC)CCC1NC1CC1 (stereo not drawn) [Compound 79, 5-Amino-1-cyclopropyl-6-fluoro-1,4-dihydro-8-methoxy-7-(4-cyclopropylamino-3-methyl-3-ethyl-1-piperidinyl)-4-oxo-quinoline-3-carboxylic acid]"
8,228 to 230 °C (dec.),"CNC1CCN(c2c(F)c(N)c3c(=O)c(C(=O)O)cn(C4CC4)c3c2OC)CC1C (stereo not drawn) [Compound 60, 5-Amino-1-cyclopropyl-6-fluoro-1,4-dihydro-8-methoxy-7-(4-methylamino-3-methyl-1-piperidinyl)-4-oxo-quinoline-3-carboxylic acid]"
9,255 to 258 °C,"CCNC1C(C)CN(c2c(F)c(N)c3c(=O)c(C(=O)O)cn(C4CC4)c3c2OC)CC1C (stereo not drawn) [Example 58, 5-amino-1-cyclopropyl-6-fluoro-1,4-dihydro-8-methoxy-7-(4-ethylamino-3,5-dimethyl-1-piperidinyl)-4-oxo-quinoline-3-carboxylic acid]"
10,205 °C (dec.),"CCNC1CCN(c2c(F)c(N)c3c(=O)c(C(=O)O)cn(C4CC4)c3c2OC)CC1(C)C (stereo not drawn) [Compound 74, 5-Amino-1-cyclopropyl-6-fluoro-1,4-dihydro-8-methoxy-7-(4-ethylamino-3,3-dimethyl-1-piperidinyl)-4-oxo-quinoline-3-carboxylic acid]"
11,202 to 204 °C,"CCNC1C(C)CN(c2c(F)c(N)c3c(=O)c(C(=O)O)cn(C4CC4)c3c2OC)CC1C (stereo not drawn) [Example 57, 5-amino-1-cyclopropyl-6-fluoro-1,4-dihydro-8-methoxy-7-(4-ethylamino-3,5-dimethyl-1-piperidinyl)-4-oxo-quinoline-3-carboxylic acid]"
12,200 to 204 °C,"COc1c(N2CC(C)C(N)C(C)C2)c(F)cc2c(=O)c(C(=O)O)cn(C3CC3)c12 (stereo not drawn) [Example 34, 1-cyclopropyl-6-fluoro-1,4-dihydro-8-methoxy-7-(4-amino-3,5-dimethyl-1-piperidinyl)-4-oxo-quinoline-3-carboxylic acid]"
13,160 to 162 °C,"CCNC1CCN(c2c(F)cc3c(=O)c(C(=O)O)cn(C4CC4)c3c2OC)CC1C (stereo not drawn) [Compound 10, 1-Cyclopropyl-6-fluoro-1,4-dihydro-8-methoxy-7-(4-ethylamino-3-methyl-1-piperidinyl)-4-oxo-quinoline-3-carboxylic acid]"
14,190 to 192 °C,"COc1c(N2CCC(NC3CC3)C(C)(C)C2)c(F)cc2c(=O)c(C(=O)O)cn(C3CC3)c12 (stereo not drawn) [Compound 37, 1-Cyclopropyl-6-fluoro-1,4-dihydro-8-methoxy-7-(4-cyclopropylamino-3,3-dimethyl-1-piperidinyl)-4-oxo-quinoline-3-carboxylic acid]"
15,250 to 252 °C,"CCNC1C(C)CN(c2c(F)cc3c(=O)c(C(=O)O)cn(C4CC4)c3c2OC)CC1C (stereo not drawn) [Example 38, 1-cyclopropyl-6-fluoro-1,4-dihydro-8-methoxy-7-(4-ethylamino-3,5-dimethyl-1-piperidinyl)-4-oxo-quinoline-3-carboxylic acid]"
16,218 to 220 °C,"COc1c(N2CC(C)C(N)C(C)(C)C2)c(F)cc2c(=O)c(C(=O)O)cn(C3CC3)c12 (stereo not drawn) [Compound 50, 1-Cyclopropyl-6-fluoro-1,4-dihydro-8-methoxy-7-(4-amino-3,3,5-trimethyl-1-piperidinyl)-4-oxo-quinoline-3-carboxylic acid]"
17,209 to 210 °C,"Cc1c(N2CCC(N(C)C)C(C)(C)C2)c(F)cc2c(=O)c(C(=O)O)cn(C3CC3)c12 (stereo not drawn) [Compound 116, 1-Cyclopropyl-6-fluoro-1,4-dihydro-8-methyl-7-(4-dimethylamino-3,3-dimethyl-1-piperidinyl)-4-oxo-quinoline-3-carboxylic acid]"
18,194 to 196 °C,"CCC1(C)CN(c2c(F)c(N)c3c(=O)c(C(=O)O)cn(C4CC4)c3c2OC)CCC1N(C)C (stereo not drawn) [Compound 80, 5-Amino-1-cyclopropyl-6-fluoro-1,4-dihydro-8-methoxy-7-(4-dimethylamino-3-methyl-3-ethyl-1-piperidinyl)-4-oxo-quinoline-3-carboxylic acid]"
19,230 to 232 °C,"CCNC1CCN(c2c(F)cc3c(=O)c(C(=O)O)cn(C4CC4)c3c2OC)CC1(C)C (stereo not drawn) [Compound 36, 1-Cyclopropyl-6-fluoro-1,4-dihydro-8-methoxy-7-(4-ethylamino-3,3-dimethyl-1-piperidinyl)-4-oxo-quinoline-3-carboxylic acid]"
20,224 to 226 °C,"CNC1C(C)CN(c2c(F)c(N)c3c(=O)c(C(=O)O)cn(C4CC4)c3c2OC)CC1C (stereo not drawn) [Compound 83, 5-Amino-1-cyclopropyl-6-fluoro-1,4-dihydro-8-methoxy-7-(4-methylamino-3,5-dimethyl-1-piperidinyl)-4-oxo-quinoline-3-carboxylic acid]"

row,SMILES,melting point
1,"Cc1c(N2CCC(N)C(C)(C)C2)c(F)cc2c(=O)c(C(=O)O)cn(C3CC3)c12 (racemic) [Compound 101, (±)-1-Cyclopropyl-6-fluoro-1,4-dihydro-8-methyl-7-(4-amino-3,3-dimethyl-1-piperidinyl)-4-oxo-quinoline-3-carboxylic acid]",198 to 200 °C
